The test system of test [1] is NLRP3 inflammasome [NLRP3炎症小体]. The following applies: mouse BMDM; pharmacological inhibition (or knockout) of TWIK2; Di et al. 2018; cited from earlier work.
The test system of test [2] is non-canonical inflammasome [非经典炎症小体]. As to the kind of experiment: Non-canonical inflammasome activation (Pam3CSK4 + transfected LPS), IL-1β ELISA. It counts as cell-based, mouse. The following applies: ML365 5 μM (Fig. 9). Background: An ELISA detects its analyte on a solid surface through an enzyme-linked reagent.
The subject of test [3] is TNF-α. As to the kind of experiment: TNF-α in supernatants of LPS + ATP treated BMDM, ELISA. As to conditions: same supernatants. It counts as cell-based, mouse.
In test [4] the test system is NLRP3 inflammasome [NLRP3炎症小体]. In words: ATP-induced NLRP3 inflammasome activation in BMDM after siRNA knockdown of TWIK2 (WB, ELISA). As to conditions: ML365 5 μM (Fig. 11), TWIK2 siRNA 50 nM 48 h, LPS + ATP. It counts as cell-based, mouse.
Test [5] concerns NLRC4 inflammasome [NLRC4炎症小体]. As to the kind of experiment: NLRC4 inflammasome activation (Pam3CSK4 + Flagellin), IL-1β ELISA. It counts as cell-based, mouse. As to conditions: ML365 5 μM (Fig. 9).
The test system of test [6] is AIM2 inflammasome [AIM2炎症小体]. As to the kind of experiment: AIM2 inflammasome activation (LPS + poly(dA:dT)), IL-1β ELISA. It counts as cell-based, mouse. The following applies: ML365 5 μM (Fig. 9).
Test [7] deals with T1, human THIK1 channel [人源THIK1, THIK1通道] (Homo sapiens, UniProt Q9HB14).
T1 construct: GFP (green fluorescent protein label of the plasmid); expressed in transfected cells; host or cells: COS-7
T1 sequence (Q9HB14 1-408): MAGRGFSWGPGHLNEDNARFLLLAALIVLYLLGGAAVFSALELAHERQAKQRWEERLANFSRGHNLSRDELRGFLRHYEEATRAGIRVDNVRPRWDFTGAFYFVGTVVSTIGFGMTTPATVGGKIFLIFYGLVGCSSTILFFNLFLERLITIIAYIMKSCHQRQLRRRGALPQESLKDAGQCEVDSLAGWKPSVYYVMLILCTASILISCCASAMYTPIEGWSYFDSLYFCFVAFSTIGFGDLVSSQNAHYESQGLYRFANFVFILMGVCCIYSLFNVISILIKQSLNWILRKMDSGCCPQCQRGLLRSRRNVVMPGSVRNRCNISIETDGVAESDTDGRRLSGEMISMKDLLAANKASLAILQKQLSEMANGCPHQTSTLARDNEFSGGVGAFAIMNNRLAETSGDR
As to the kind of experiment: Whole-cell patch clamp of transfected COS-7 cells, THIK1 current. It counts as cell-based. Background: Patch clamp records ionic current or voltage across a cell membrane.

The subject of test [8] is NLRP3 inflammasome [NLRP3炎症小体]. As to the kind of experiment: ATP- or Nigericin-induced NLRP3 inflammasome activation in human THP-1 macrophages. It counts as cell-based.
Test [9] deals with NLRP3 inflammasome [NLRP3炎症小体]. In words: ATP-induced IL-1β release from LPS-primed BMDM, ELISA. It counts as cell-based, mouse.
Test [10] has as its system NLRP3 inflammasome [NLRP3炎症小体]. In words: Nigericin-induced NLRP3 inflammasome activation in LPS-primed BMDM (WB, ELISA). It counts as cell-based, mouse.
For test [11], the target named is T2, human TWIK1 channel, functional mutant muTWIK1 I293/294A/K274E [人源TWIK1-I293/294A/K274E, muTWIK1] (Homo sapiens, UniProt O00180, I293A/I294A/K274E).
T2 construct: GFP (green fluorescent protein label of the plasmid); expressed in transfected cells; host or cells: COS-7
T2 sequence (O00180 1-336 K274E/I293A/I294A): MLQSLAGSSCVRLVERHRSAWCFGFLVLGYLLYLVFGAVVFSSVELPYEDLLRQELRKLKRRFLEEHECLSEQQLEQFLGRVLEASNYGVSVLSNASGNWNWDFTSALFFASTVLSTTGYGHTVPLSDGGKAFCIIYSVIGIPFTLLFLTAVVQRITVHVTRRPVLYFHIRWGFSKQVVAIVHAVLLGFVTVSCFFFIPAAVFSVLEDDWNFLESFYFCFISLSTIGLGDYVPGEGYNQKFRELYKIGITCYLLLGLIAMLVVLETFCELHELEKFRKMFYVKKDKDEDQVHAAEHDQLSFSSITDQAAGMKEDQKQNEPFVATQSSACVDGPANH
As to the kind of experiment: Whole-cell patch clamp of transfected COS-7 cells, TWIK1 (muTWIK1) current. It counts as cell-based.

Test [12] has as its system NLRP3 inflammasome [NLRP3炎症小体]. As to the kind of experiment: ATP-induced NLRP3 inflammasome activation in LPS-primed BMDM, Western blot (WB). It counts as cell-based, mouse.
In test [13] the target is T3, human TWIK2 channel, functional mutant muTWIK2 Y308A/I289A/L290A [人源TWIK2-Y308A/I289A/L290A, muTWIK2] (Homo sapiens, UniProt Q9Y257, I289A/L290A/Y308A).
T3 construct: GFP (green fluorescent protein label of the plasmid); expressed in transfected cells; host or cells: COS-7
T3 sequence (Q9Y257 1-313 I289A/L290A/Y308A): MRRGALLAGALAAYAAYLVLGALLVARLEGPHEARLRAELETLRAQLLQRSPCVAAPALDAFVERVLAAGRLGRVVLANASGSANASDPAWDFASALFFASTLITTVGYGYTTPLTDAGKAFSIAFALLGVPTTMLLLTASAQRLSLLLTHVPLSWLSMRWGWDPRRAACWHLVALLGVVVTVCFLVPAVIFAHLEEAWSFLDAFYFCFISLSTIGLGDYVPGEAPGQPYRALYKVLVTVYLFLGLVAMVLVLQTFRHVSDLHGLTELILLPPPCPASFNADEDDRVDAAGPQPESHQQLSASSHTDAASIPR
In words: Whole-cell patch clamp of transfected COS-7 cells, TWIK2 (muTWIK2) current. It counts as cell-based.

The values that follow come from CN113143900A, “Ml365在制备预防和/或治疗nlrp3炎症小体相关疾病的药物中的应用” (Southern Medical University, priority 2021, dated 2021).

Entries after “also recorded” stand apart in the source; their conditions may differ.

For `C=C[C@H]1CN2CC[C@H]1C[C@H]2[C@H](O)c1ccnc2ccc(OC)cc12` [奎宁], in [1], the “ASC oligomerisation (in words)” value was “抑制caspase-1的激活、ATP诱发的IL-1β的释放以及凋亡相关斑点形成蛋白ASC的寡聚化”, the “ATP-evoked IL-1β release (in words)” value is given as “抑制caspase-1的激活、ATP诱发的IL-1β的释放”, the “caspase-1 activation (in words)” value is “抑制caspase-1的激活” and the “effect on NLRP3 inflammasome activation (in words)” value is recorded as “可以抑制BMDM细胞中NLRP3炎症小体的激活”.

A word on the IC50: it is the midpoint of a concentration-inhibition curve. Read a low IC50 as greater potency. Regarding `COc1ccccc1C(=O)Nc1cccc(NC(=O)c2cccc(C)c2)c1` [ML365, 2-甲氧基-N-[3-[(3-甲基苯甲酰基)氨基]苯基]苯甲酰胺], the “effect on non-canonical inflammasome activation (in words)” value in test [2] was “不抑制 and 无影响”. Further, in test [3], the “TNF-α expression (in words)” value is listed as “几乎无影响”. In addition, the “inhibition of ATP-induced NLRP3 inflammasome activation by ML365 after TWIK2 knockdown (in words)” value in test [4] was “可阻断 and 极大减弱 and 显著下降 and 可消除”. Further, in test [5], the “effect on NLRC4 inflammasome activation / induced IL-1β production (in words)” value is “不抑制 and 无影响”. The “effect on AIM2 inflammasome activation / induced IL-1β production (in words)” value in test [6] was “不抑制 and 无影响”. The “inhibition of THIK1 channel (in words)” value in test [7] (10 μM) was “几乎无抑制作用”; in test [7] (20 μM), “也无抑制作用”. Besides, the “effect on THIK1 channel function (in words)” value in test [7] (concentration not stated) is “不影响”. The “effect on ATP-induced NLRP3 inflammasome activation (in words)” value in [8] (ATP) was “也在人THP-1巨噬细胞中得到证实 and 抑制”; in test [12] (LPS 5 μg/mL overnight, compound 2 h, ATP 5 mM 1 h) it was “阻断 and 剂量依赖性地抑制 and 可以特异性抑制 and 可特异性地抑制 and 可特异性抑制”. For the same compound, the “effect on Nigericin-induced NLRP3 inflammasome activation (in words)” value is “也在人THP-1巨噬细胞中得到证实 and 无影响” in [8] (Nigericin); “没有影响” in test [10] (BMDM, even at 10 and 20 μM, Nigericin 10 μM 30 min); “无影响” in test [10] (concentration not stated). Also, the “IL-1β release (in words)” value in [9] is “显著降低”. In addition, the results for the “inhibition of muTWIK1 channel (in words)” value in [11] (10 μM) and in test [11] (20 μM) were “没有抑制作用” and “也无抑制作用”, respectively. Also, in test [11] (concentration not stated), the “effect on TWIK1 channel function (in words)” value is listed as “不影响”. For the same compound, the “expression level of caspase-1 in cell supernatant (in words)” value in test [12] (WB, LPS + ATP) is given as “有所降低”. Moreover, in test [12] (WB, LPS + ATP), the “expression level of mature IL-1β in cell supernatant (in words)” value was “有所降低”. In test [13] (10 μM in Fig. 3, muTWIK2 in COS-7 cells), the “inhibition of TWIK2 channel (in words)” value was “特异性强效抑制剂; also recorded: 强效抑制剂; also recorded: 较强的抑制作用”. Besides, the “I/I0 (inhibition of TWIK2 channel)” value in test [13] (ML365 10 μM, muTWIK2 in COS-7 cells) worked out at 0.35±0.02. Further, the activity at 10 µM in test [13] (ML365 10 μM, muTWIK2 in COS-7 cells, read-out: I/I0 (inhibition of TWIK2 channel)) was 35 ± 2%. Moreover, the “selectivity for TWIK2 channel (in words)” value in test [13] (compared with TWIK1 and THIK1) is on record as “特异性选择抑制剂; also recorded: 强效选择性抑制剂; also recorded: 选择性抑制剂”. Moreover, the IC50 in test [13] (inhibition of TWIK2 channel, dose-response curve on muTWIK2, COS-7 cells) was determined as 4.07 µM.
